Source: patent publication US20210071229A1, “FIBRINOGEN TEST” (DSM IP Assets B.V., priority 2018, published 2021)
“And” between values parts separate entries of the source, which are not always exact repeats. Identical values can stand only once. Like-named read-outs stand apart in the source and are kept apart here.

Columns and labels:
batroxobin = batroxobin (Bothrops atrox, UniProt P04971); format: biochemical, Bothrops moojeni
control plasma [1] = assay: activated Partial Thromboplastin Time (aPTT) clotting test, spiked control plasma, BCS-XP; format: biochemical
control plasma [2] = system: control plasma

Chain of batroxobin (P04971 25-255 limits assumed): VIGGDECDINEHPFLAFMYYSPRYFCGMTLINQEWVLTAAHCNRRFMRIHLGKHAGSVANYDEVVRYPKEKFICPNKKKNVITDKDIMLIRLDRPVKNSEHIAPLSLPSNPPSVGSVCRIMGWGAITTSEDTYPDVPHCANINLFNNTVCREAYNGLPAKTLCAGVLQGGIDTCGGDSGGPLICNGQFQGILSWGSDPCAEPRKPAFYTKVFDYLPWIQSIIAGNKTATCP

NCCCCCC(=O)O [6-aminocaproic acid]
effect on enzyme activity of batroxobin vs untreated control (batroxobin): did not significantly influence the activity
predicted Vmax and Km vs untreated control (batroxobin): not significantly different

CC1CNc2c(cccc2S(=O)(=O)N[C@@H](CCCNC(=N)N)C(=O)N2CC[C@@H](C)C[C@@H]2C(=O)O)C1 (some centres unmarked) [Argatroban]
effect on Vmax of batroxobin-Pefachrome TH substrate (batroxobin): very slight reduction
effect on enzyme activity of batroxobin (batroxobin): did not significantly suppress
effect on Km of batroxobin-Pefachrome TH substrate (batroxobin; 0.13-2.0 μg/mL): not significantly affected
aPTT-test CT (control plasma [1]; 0.13 μg/ml in plasma): 34.62 s
aPTT-test Mean (control plasma [1]; 0.13 μg/ml in plasma): 34.62 s
aPTT-test delay (control plasma [1]; 0.13 μg/ml in plasma): 8%
aPTT-test CT (control plasma [1]; 2.0 μg/ml in plasma): 55.77 s and 55.46 s
aPTT-test Mean (control plasma [1]; 2.0 μg/ml in plasma): 55.62 s
aPTT-test delay (control plasma [1]; 2.0 μg/ml in plasma): 73%
PT-test CT (control plasma [2]; 0.13 μg/ml in plasma): 10.18 s and 10.21 s
PT-test Mean (control plasma [2]; 0.13 μg/ml in plasma): 10.20 s
PT-test delay (control plasma [2]; 0.13 μg/ml in plasma): 1%
PT-test CT (control plasma [2]; 2.0 μg/ml in plasma): 12.26 s and 12.24 s
PT-test Mean (control plasma [2]; 2.0 μg/ml in plasma): 12.25 s
PT-test delay (control plasma [2]; 2.0 μg/ml in plasma): 22%

[H]/N=C(/N)c1ccc(NCc2nc3cc(C(=O)N(CCC(=O)O)c4ccccn4)ccc3n2C)cc1 [Dabigatran]
effect on Km of batroxobin-Pefachrome TH substrate (batroxobin; 31-500 ng/mL): not significantly affected

O=C(O)CN(CCN(CC(=O)O)CC(=O)O)CC(=O)O [EDTA]
interference in batroxobin-Pefachrome TH reaction (batroxobin): failed to see significant interference

O=C(NC[C@H]1CN(c2ccc(N3CCOCC3=O)cc2)C(=O)O1)c1ccc(Cl)s1 [Rivaroxaban]
effect on Vmax of batroxobin-Pefachrome TH substrate (batroxobin): very slight reduction
effect on enzyme activity of batroxobin (batroxobin): did not significantly suppress
effect on Km of batroxobin-Pefachrome TH substrate (batroxobin; 38-600 ng/mL): not significantly affected
aPTT-test CT (control plasma [1]; 38 ng/ml in plasma): 39.46 s and 39.44 s
aPTT-test Mean (control plasma [1]; 38 ng/ml in plasma): 39.45 s
aPTT-test delay (control plasma [1]; 38 ng/ml in plasma): 23%
aPTT-test CT (control plasma [1]; 600 ng/ml in plasma): 80.73 s and 80.07 s
aPTT-test Mean (control plasma [1]; 600 ng/ml in plasma): 80.40 s
aPTT-test delay (control plasma [1]; 600 ng/ml in plasma): 150%
PT-test CT (control plasma [2]; 38 ng/ml in plasma): 10.74 s and 10.61 s
PT-test Mean (control plasma [2]; 38 ng/ml in plasma): 10.68 s
PT-test delay (control plasma [2]; 38 ng/ml in plasma): 6%
PT-test CT (control plasma [2]; 600 ng/ml in plasma): 19.42 s and 19.32 s
PT-test Mean (control plasma [2]; 600 ng/ml in plasma): 19.37 s
PT-test delay (control plasma [2]; 600 ng/ml in plasma): 92%

aprotinin
effect on enzyme activity of batroxobin vs untreated control (batroxobin): did not significantly influence the activity
predicted Vmax and Km vs untreated control (batroxobin): not significantly different

hirudin
interference in batroxobin-Pefachrome TH reaction (batroxobin): failed to see significant interference

hydroxyethyl starch [HES]
interference in batroxobin-Pefachrome TH reaction (batroxobin): failed to see significant interference
